Broadly, the IC50 is the point on the concentration scale where inhibition reaches its midpoint. Lower therefore signals higher potency.

The results in this text go back to patent publication US20090018162A1, “USE OF 6-(3-CHLORO-2-FLUOROBENZYL)-1-[(2S)-1-HYDROXY-3-METHYLBUTAN-2-YL]-7-METHOXY-4-OXO-1,4-DIHYDROQUINOLINE-3-CARBOXYLIC ACID OR SALT THEREOF FOR TREATING RETROVIRUS INFECTION” (priority 2006, published 2009).

The nature of data set [1]: MTS cytotoxicity in monocyte/macrophage cultures. Format: cell-based. To be noted: human, fresh adherent monocyte/macrophage cultures, HIV-infected, macrophages, MTS, read-out: TC50. The method, then:
Anti-HIV Efficacy Evaluation in Fresh Human Monocyte/Macrophage. Monocytes/macrophages were allowed to adhere to the interior 60 wells of a 96 well flat bottomed plate for 2 to 18 hours at 37° C., 5% CO2. Following 6 to 14 days in culture, the monocyte/macrophage cultures were washed 3 times to remove any non-adherent cells and serially diluted test compounds were added followed by the addition of a pre-titered amount of HIV. Cultures were washed a final time by media removal 24 hours post infection, fresh compound added and the cultures continued for an additional six days. […] At assay termination, virus replication was measured by collecting cell-free supernatant samples which were analyzed for HIV p24 antigen content using a commercially available p24 ELISA assay (Coulter). […] MTS staining for PBMC viability to measure cytotoxicity. […] The mitochondrial enzymes of metabolically active cells metabolize MTS to yield a soluble formazan product. This allows the rapid quantitative analysis of cell viability and compound cytotoxicity. […] At termination of the assay, 20 μL of MTS reagent was added per well. The microtiter plates were then incubated 4-6 hrs at 37° C. The incubation intervals were chosen based on empirically determined times for optimal dye reduction. […] Data analysis.

The subject of data set [2] is HIV-1 clinical isolates.
Data set [3] deals with HIV-1 macrophage-tropic virus strains.
Data set [4] has as its system human PBMCs. To be noted: 7 days.
Data set [5] deals with HIV-1 clinical isolates. In words: microbe, parasite or virus in culture. To be noted: Human immunodeficiency virus 1, PBMC.
For data set [6], the system named is HIV-1 macrophage-tropic virus strains. In words: microbe, parasite or virus in culture.
For a further data set, the system named is HIV-2 CDC 310319. In words: microbe, parasite or virus in culture. To be noted: Human immunodeficiency virus 2, PBMC.
Data set [7] is described as follows: MTS staining for PBMC viability (cytotoxicity). Conditions: human.
Data set [8] has as its system human PBMCs. In words: MTS staining for PBMC viability (cytotoxicity). To be noted: read-out: TC50, PBMCs, MTS.
Data set [9] deals with drug-resistant HIV-1 isolates. In words: Anti-HIV efficacy in fresh human PBMCs, drug-resistant HIV-1 isolates. To be noted: for IC50: Human immunodeficiency virus 1, PBMC, in Homo sapiens.
Data set [10] deals with recombinant HIV-1 clones (patient protease/RT sequences in HIV-1 NL4-3). As to the kind of experiment: microbe, parasite or virus in culture. Format: cell-based.
The nature of a further data set: in vitro. Conditions: human.

Like-named read-outs stand apart in the source and are kept apart here.

For the compound `O=C1Nc2ccc(Cl)cc2[C@@](C#CC2CC2)(C(F)(F)F)O1` [Efavirenz, efavirenz], the values for the CC50 at 7 days in data set [1] (ADA assay), in data set [1] (Ba-L assay) and in data set [7] were > 10000 nM, > 10000 nM and > 1000 nM, respectively. For the same compound, the “TI (TC50/IC50)” value is recorded as >1538.5 with HIV-1 clinical isolates [2] (HIV-1 96USHIPS7 in PBMCs); >1449.3 with HIV-1 clinical isolates [2] (HIV-1 BFC01 in PBMCs); >21.3 in the data set with HIV-1 clinical isolates [2] (HIV-1 BR/92/021 in PBMCs); >3333.3 with HIV-1 clinical isolates [2] (HIV-1 BR/92/025 in PBMCs); >1724.1 with HIV-1 clinical isolates [2] (HIV-1 BR/93/017 in PBMCs); >3125.0 in the data set with HIV-1 clinical isolates [2] (HIV-1 BR/93/020 in PBMCs). The “TI (TC50/IC50)” value with HIV-1 clinical isolates [2] (HIV-1 BR/93/022 in PBMCs) is listed as >1612.9; in the data set with HIV-1 clinical isolates [2] (HIV-1 CMU 02 in PBMCs) it was >549.5; with HIV-1 clinical isolates [2] (HIV-1 JV 1083 in PBMCs) it was >1538.5; in the data set on HIV-1 clinical isolates [2] (HIV-1 RW/92/016 in PBMCs), >1639.3; with HIV-1 clinical isolates [2] (HIV-1 UG/92/046 in PBMCs), >840.3; in data set [3] (HIV-1 ADA in macrophages), >2793.3. Moreover, the “TI (TC50/IC50)” value in data set [3] (HIV-1 Ba-L in macrophages) is >4717.0; in data set [9] (HIV-1 52-52 in PBMCs) it was >9901.0; in data set [9] (HIV-1 144-44 in PBMCs), >1666.7; in data set [9] (HIV-1 1002-60 in PBMCs) it was >4761.9; in data set [9] (HIV-1 1064-52 in PBMCs), >3448.3; in [9] (HIV-1 MDR 769 in PBMCs), >1851.9. Further, the “TI (TC50/IC50)” value in data set [9] (HIV-1 MDR 807 in PBMCs) is given as >1408.5. Moreover, the CC50 in the data set on human PBMCs [4], in the data set with human PBMCs [8] (52-52 assay), with human PBMCs [8] (144-44 assay), with human PBMCs [8] (1002-60 assay), in the data set with human PBMCs [8] (1064-52 assay) and in the data set on human PBMCs [8] (BFC01 assay) was > 1000 nM in each case. For the same compound, the CC50 with human PBMCs [8] (BR/92/021 assay), in the data set with human PBMCs [8] (BR/92/025 assay), in the data set with human PBMCs [8] (BR/93/017 assay), in the data set with human PBMCs [8] (BR/93/020 assay), in the data set with human PBMCs [8] (BR/93/022 assay) and in the data set with human PBMCs [8] (CMU 02 assay) was > 1000 nM each time. Further, the CC50 in the data set on human PBMCs [8] (HIV-2 CDC 310319 assay), in the data set with human PBMCs [8] (JV 1083 assay), in the data set with human PBMCs [8] (RW/92/016 assay) and in the data set with human PBMCs [8] (UG/92/046 assay) was > 1000 nM throughout. In addition, the half-inhibitory concentration (IC50) came to 0.65 nM in the data set on HIV-1 clinical isolates [5] (HIV-1 96USHIPS7 (subtype /B, R5) in PBMCs); 47 nM in the data set on HIV-1 clinical isolates [5] (HIV-1 BR/92/021 (subtype B/B, R5) in PBMCs); 0.58 nM with HIV-1 clinical isolates [5] (HIV-1 BR/93/017 (subtype B/B, R5) in PBMCs); 0.32 nM in the data set on HIV-1 clinical isolates [5] (HIV-1 BR/93/020 (subtype F/F, R5/X4) in PBMCs); 0.62 nM in the data set with HIV-1 clinical isolates [5] (HIV-1 BR/93/022 (subtype /B, R5) in PBMCs); 1.82 nM in the data set with HIV-1 clinical isolates [5] (HIV-1 CMU 02 (subtype /EA, X4) in PBMCs). Further, the IC50 in the data set on HIV-1 clinical isolates [5] (HIV-1 JV 1083 (subtype /G, R5) in PBMCs) is 0.65 nM; in the data set on HIV-1 clinical isolates [5] (HIV-1 RW/92/016 (subtype A/A, R5) in PBMCs), 0.61 nM; in the data set with HIV-1 clinical isolates [5] (HIV-1 UG/92/046 (subtype D/D, X4) in PBMCs), 1.19 nM; in data set [6] (Human immunodeficiency virus 1, BAL, Macrophage) it was 2.12 nM; in data set [6] (Human immunodeficiency virus 1, Macrophage), 3.58 nM; with HIV-2 CDC 310319 it was > 1000 nM. For the same compound, the IC50 in data set [9] (HIV-1 52-52 (protease-inhibitor resistant) in PBMCs) is < 0.1 nM; in data set [9] (against several viruses (e.g., MDR 1385, MDR 3761) in PBMCs), > 1000 nM; in data set [9] (multi-drug-resistant HIV-1 MDR 769 in PBMCs), 0.54 nM; in data set [9] (multi-drug-resistant HIV-1 MDR 807 in PBMCs), 0.71 nM; in data set [9] (multi-drug-resistant HIV-1 MDR 1385 in PBMCs), > 1000 nM; in [9] (multi-drug-resistant HIV-1 MDR 3761 in PBMCs), > 1000 nM.

As for `C[C@H](Cn1cnc2c(N)ncnc21)OCP(=O)(O)O` [TFV, Tenofovir], the “Fold-increase (EC50 fold increase above reference clone NL4-3)” value is on record as 8.5 in data set [10] (RT mutation 2-5 TAMs, K65 and/or Q151, N=4, averaged); 3.5 in data set [10] (RT mutation 2-5 TAMs, N=16, averaged); 12.2 in data set [10] (RT mutation 2-5 TAMs, T69ins, N=4, averaged); 1.6 in data set [10] (RT mutation 6 TAMS, M184, N=7, averaged); 5.0 in [10] (RT mutation 6 TAMs, N=5, averaged); 2.2 in [10] (RT mutation K65 and/or Q151, M184, N=12, averaged). Moreover, the “Fold-increase (EC50 fold increase above reference clone NL4-3)” value in [10] (RT mutation K65 and/or Q151, N=7, averaged) was 4.0; in data set [10] (RT mutation M184, N=12, averaged), 0.6; in [10] (Wild-type clones, N=8, averaged) it was 0.8.

For enfuvirtide, the CC50 in the data set on human PBMCs [4] is > 10000 nM. For the same compound, the CC50 at 7 days in the data set “in vitro” is > 10000 nM.
